Assay results taken from ChEMBL document CHEMBL3885861, “Open TG-GATES”.

Species: Rattus norvegicus
Assay: Open TG-GATES - Regimen: Daily Repeat
Type: toxicity, organism-based, Sprague-Dawley
Set-up: regimen Daily Repeat, gender Male, age 6 weeks
Settings: in vivo, po, 20 mg/kg, route gavage, dose level High; for APTT / Bas / Eos / Fbg / Hb / Lym / MCH / MCHC / MCV / Mono / Neu / PT / Plat / RBC / Ret / WBC: tissue Blood
[1] = 72 h, tissue Kidney, time 3 day
[2] = 72 h, tissue Plasma, time 3 day

`OCCN1CCN(CCCN2c3ccccc3Sc3ccc(C(F)(F)F)cc32)CC1` [FLUPHENAZINE] gave a TERMINAL_BW (72 h, time 3 day) of 168.5 g, an APTT (72 h, time 3 day) of 13.2 s and a Bas (72 h, time 3 day) of 0%. The Eos (72 h, time 3 day) was 1.2%, the Fbg (72 h, time 3 day) was 176.8 mg/dL and the Hb (72 h, time 3 day) was 16 g/dL. It also gave a Lym (72 h, time 3 day) of 84.6%, an MCH (72 h, time 3 day) of 21.1 pg and an MCHC (72 h, time 3 day) of 33.1%. The MCV (72 h, time 3 day) was 63.6 fL, the Mono (72 h, time 3 day) was 5.2% and the Neu (72 h, time 3 day) was 9.2%. It also gave a PT (72 h, time 3 day) of 12.7 s, a Plat (72 h, time 3 day) of 131.6 x10_4/uL and an RBC (72 h, time 3 day) of 756.8 x10_4/ul. It also gave a Ret (72 h, time 3 day) of 1.2%, a WBC (72 h, time 3 day) of 83.2 x10_2/uL and a KIDNEY_L [1] of 0.9 g. The KIDNEY_R [1] was 0.9 g, the KIDNEY_TOTAL [1] was 1.7 g and the LIVER (72 h, tissue Liver, time 3 day) was 7.4 g. It also gave an ALP [2] of 538 IU/L, an ALT [2] of 28 IU/L and an AST [2] of 76.2 IU/L. It also gave a BUN [2] of 23.4 mg/dL, a CRE [2] of 0.6 mg/dL and a Ca [2] of 10.1 mg/dL. The Cl [2] was 108.4 meq/L, the DBIL [2] was 0.036 mg/dL and the GLC [2] was 180.4 mg/dL. It also gave an IP [2] of 7 mg/dL, a K [2] of 4.2 meq/L and an LDH [2] of 189 IU/L. For the same compound, the Na [2] was 140 meq/L, the PL [2] was 128 mg/dL and the RALB [2] was 4.2 g/dL. For the same compound, the TBIL [2] was 0.3 mg/dL, the TC [2] was 74.6 mg/dL and the TG [2] was 48.4 mg/dL. For the same compound, the TP [2] was 5.8 g/dL, the gamma-GTP [2] was 1 IU/L and the TERMINAL_BW ([…], time 7 day) was 190 g. It also gave a TERMINAL_BW ([…], time 14 day) of 258.2 g, a TERMINAL_BW ([…], time 28 day) of 303.2 g and an APTT ([…], time 7 day) of 15.9 s. For the same compound, the Bas ([…], time 7 day) was 0%, the Eos ([…], time 7 day) was 0.4% and the Fbg ([…], time 7 day) was 204.6 mg/dL. It also gave a Hb ([…], time 7 day) of 15.5 g/dL, a Lym ([…], time 7 day) of 86.4% and an MCH ([…], time 7 day) of 20.9 pg. For the same compound, the MCHC ([…], time 7 day) was 33.8%, the MCV ([…], time 7 day) was 61.7 fL and the Mono ([…], time 7 day) was 4.8%. The Neu ([…], time 7 day) was 8.4%, the PT ([…], time 7 day) was 12.6 s and the Plat ([…], time 7 day) was 95.7 x10_4/uL. It also gave an RBC ([…], time 7 day) of 745.2 x10_4/ul, a Ret ([…], time 7 day) of 2.3% and a WBC ([…], time 7 day) of 93.7 x10_2/uL. For the same compound, the APTT ([…], time 14 day) was 16.1 s, the Bas ([…], time 14 day) was 0% and the Eos ([…], time 14 day) was 0.8%. For the same compound, the Fbg ([…], time 14 day) was 214.5 mg/dL, the Hb ([…], time 14 day) was 14.8 g/dL and the Lym ([…], time 14 day) was 80.2%. It also gave an MCH ([…], time 14 day) of 20.5 pg, an MCHC ([…], time 14 day) of 33.3% and an MCV ([…], time 14 day) of 61.6 fL. The Mono ([…], time 14 day) was 6.2%, the Neu ([…], time 14 day) was 13% and the PT ([…], time 14 day) was 12.3 s. It also gave a Plat ([…], time 14 day) of 95.6 x10_4/uL, an RBC ([…], time 14 day) of 724 x10_4/ul and a Ret ([…], time 14 day) of 3.9%. The WBC ([…], time 14 day) was 124.5 x10_2/uL, the APTT ([…], time 28 day) was 16.6 s and the Bas ([…], time 28 day) was 0%. It also gave an Eos ([…], time 28 day) of 0.8%, a Fbg ([…], time 28 day) of 206 mg/dL and a Hb ([…], time 28 day) of 15.6 g/dL. It also gave a Lym ([…], time 28 day) of 84.2%.
